According to patent US9394555B2, “Compositions comprising a polypeptide having cellulolytic enhancing activity and a dioxy compound and uses thereof” (priority 2010, dated 2016):

B1: T. aurantiacus GH61A polypeptide: GH61A polypeptide having cellulolytic enhancing activity (SEQ ID NO: 14), recombinantly produced in Aspergillus oryzae JaL250 (protein, listed as Thermoascus aurantiacus)
chain: MSFSKIIATAGVLASASLVAGHGFVQNIVIDGKYYGGYLVNQYPYMSNPPEVIAWSTTATDLGFVDGTGYQTPDIICHRGAKPGALTAPVSPGGTVELQWTPWPDSHHGPVINYLAPCNGDCSTVDKTQLEFFKIAESGLINDDNPPGIWASDNLIAANNSWTVTIPTTIAPGNYVLRHEIIALHSAQNQDGAQNYPQCINLQVTGGGSDNPAGTLGTALYHDTDPGILINIYQKLSSYIIPGPPLYTG

Tests used:
[1] = system: T. terrestris GH61E polypeptide; test: Microcrystalline cellulose conversion assay I (Examples 8, 9) with T. terrestris GH61E polypeptide; assay type: biochemical, Thielavia terrestris; settings: dioxy compound 0.3% w/w + T. terrestris GH61E polypeptide (10 mg/g) + endoglucanase II + beta-glucosidase (5 mg/g each), 96 hours
Protocol: A 5% microcrystalline cellulose slurry was prepared by addition of 2.5 g of AVICEL®PH101 (Sigma-Aldrich, St. Louis, Mo., USA) to a graduated 50 ml screw-cap conical tube followed by 15 ml of 1 M sodium acetate pH 5 and 1 ml of 100 mM MnSO4 and approximately 20 ml of deionizer water. Each conical tube was then mixed thoroughly by shaking/vortexing, and adjusted to 50 ml total with deionized water and mixed again. Contents of the tube were then quickly transferred to a 100 ml beaker and stirred rapidly with a magnetic stirrer. Five hundred μl aliquots of the 5% AVICEL® slurry were pipetted into wells of a 2.0 ml 96-deepwell plate (Axygen, Union City, Calif., USA) using a 1000 μl micropipette with a wide aperture tip (end of tip cut off about 2 mm from the base). Three hundred μl of either deionized water or a 1% dioxy compound solution (dissolved in deionized water) was added to each well.
The dioxy compounds assayed include caffeic acid (Sigma-Aldrich, St. Louis, Mo., USA), dichlorophenolindophenol (DCPIP; Sigma-Aldrich, St. Louis, Mo., USA), ethyl gallate (Sigma-Aldrich, St. Louis, Mo., USA), gallic acid (Sigma-Aldrich, St. Louis, Mo., USA), 3,4-dihydroxybenzoic acid (Sigma-Aldrich, St. Louis, Mo., USA), pyrocatechol (Sigma-Aldrich, St. Louis, Mo., USA), pyrogallol (Sigma-Aldrich, St. Louis, Mo., USA), sinapinic acid (3,5 dimethoxy-4-hydroxy cinnamic acid; Apin Chemicals LTD, Abingdon, UK), and tannic acid (Sigma-Aldrich, St. Louis, Mo., USA).
Enzyme mixtures were prepared and then added simultaneously to all wells in a volume of 200 μl, for a total of 1 ml in each reaction. […] All experiments reported were performed in triplicate.
After approximately 4 days, the deep-well plate was removed from the incubator and chilled overnight to 4° C. The plate was then mixed well by inversion and briefly centrifuged at 52×g in a SORVALL® RT7 centrifuge (Thermo Fisher Scientific, Waltham, Mass., USA) for 10 seconds. Samples were then mixed by pipetting, and 200 μl from each well were transferred to a MULTISCREEN® HV centrifuge filter plate assembly (Millipore, Bedford, Mass., USA). The centrifuge filter plate assembly was centrifuged at 2000 rpm in a SORVALL® RT7 centrifuge for 20 minutes. […] Sugars were detected using a refractive index detector (Agilent Technologies, Inc., Santa Clara, Calif., USA) with quantification by integration compared to purified sugar standards.
In this assay only glucose was measured since beta-glucosidase was at high levels in all samples but the controls.
A limit digest was performed to determine the total concentration accessible glucose equivalents using 100 mg of T. reesei cellulase (CELLIC™ CTec, Novozymes A/S, Bagsvaerd, Denmark) per gram cellulose, Triplicate data points were averaged and standard deviation was calculated.

[2] = target: T. aurantiacus GH61A polypeptide (Thermoascus aurantiacus, UniProt G3XAP7, N13Y); test: Phosphoric acid swollen cellulose (PASC) conversion assay (Examples 20, 21); assay type: biochemical; settings: 72 hours, 50° C.
Protocol: A 1.0% PASC slurry was prepared as described in Example 17. Ten ml of the 1.0% PASC slurry, 10 ml of H2O, and […] of dioxy compound were thoroughly mixed by shaking,
Five hundred μl aliquots of the 0.50% phosphoric acid swollen cellulose/0.05% dioxy compound slurry were pipetted into wells of a 2.0 ml 96-deepwell plate (Axygen, Union City, Calif., USA) using a 1000 μl micropipette with a wide aperture tip (end of tip cut off about 2 mm from the base). One hundred μl of 10 mM MnSO4-500 mM sodium acetate pH 5 were then added to each well. Two hundred μl of deionized water were added to each well. Enzyme mixtures were prepared and then added simultaneously to all wells in a volume of 200 μl, for a total of 1 ml in each reaction. […] All experiments reported were performed in triplicate.
Primary analysis of the hydrolysis reactions was performed using an AGILENT® 1100 HPLC with CHEMSTATION® software equipped with an AMINEX™ HPX-87H column. After approximately 4 days, the deep-well plate was removed from the incubator and chilled overnight to 4° C. The plate was then mixed well by inversion and briefly centrifuged 52×g in a SORVALL® RT7 centrifuge for 10 seconds. Samples were then mixed by pipetting, and 200 μl from each well were transferred to a MULTISCREEN® HV centrifuge filter plate assembly. The centrifuge filter plate assembly was centrifuged at 2000 rpm in a SORVALL® RT7 centrifuge for 20 minutes. […] Sugars were detected using a refractive index detector with quantification by integration compared to purified sugar standards.
All HPLC data processing was performed using MICROSOFT EXCEL™ software. […] In this assay only glucose was measured since beta-glucosidase was at high levels in all samples but the controls. Percent conversion was calculated using Equation 1. Triplicate data points were averaged and standard deviation was calculated.
The PASC assay was performed as described in Example 20.
Data were collected and analyzed, as described in Example 20, after 72 hours of incubation at 50° C.

Molecule | conversion of microcrystalline cellulose ([1]; 50° C.) [%] | conversion of microcrystalline cellulose ([1]; 60° C.) [%] | conversion of phosphoric acid swollen cellulose ([2]; T. aurantiacus GH61A polypeptide (20 mg/g) + A. oryzae CEL3A beta-glucosidase (20 mg/g), no dioxy compound) [%] | conversion of PASC ([2]; T. aurantiacus GH61A polypeptide (20 mg/g) alone) [%]
O=C(O)c1cc(O)c(O)c(O)c1 [gallic acid] | 9.3±0.1 | 7.9±0.1 |  | 
B1 |  |  | 2.3±0.6 | 1.5±1.1
